Test results as given in patent US12214058B2, “Imaging methods using deuterated compounds” (Genentech, Inc., priority 2014, dated 2025).

Experiments:
[1] = Microsomal stability assay, mouse liver microsomes; format: in vitro ADME; details: radiolabeled, 5 min, n=3
Description: Microsomal stability assays The tracer [^18F][A]-d2 or [^18F][A] was dissolved in potassium phosphate (Kpi) buffer (100 mM) at concentration 500-600 μCi/mL. The non-radioactive 7 and 10 were dissolved in Kpi buffer at 10 μM concentration. The reaction vessel was charged with human or mouse liver microsome suspension (12.5 μL, 20 mg/mL) followed by Kpi buffer (388 μL, 10 mM), NADPH (50 μL, 10 mM) and incubated at 37° C. for 5-10 min. A solution of the radioactive [^18F][A]-d2 or [^18F][A] (50 μL, 250-300 μCi) or non-radioactive 7 or 8 (50 μL, 10 μM) were added to the reaction vessel and the mixture was incubated at 37° C. Aliquots (50 μL) of the reaction mixture were taken at 5, 15 and 45 minutes post addition of the tested compound, mixed with ice-cold acetonitrile (100 μL) and centrifuged. The supernatant was analyzed by LCMS (System E).

[2] = Dynamic PET in anesthetized rhesus; format: in vivo; details: 370 MBq i.v. bolus, PET over 240 min, versus [18F][A] and 18F T807
Description: [^18F][A]-d2, [^18F][A] or ^18F T807 (see Chien et al., J. Alzheimers Dis, 38:171-84 (2014)) (370 MBq (10 mCi)) was intravenous bolus injected into an anesthetized rhesus, and dynamic PET data acquired over 240 minutes. […] Data was collected from the same animal but on different days for each probe.

[3] = tested on: tau (NFTs) in human brain tissues; test: Autoradiography on postmortem human brain tissues; format: binding
Description: Autoradiography The tracer [^18F][A] or [^18F][A]-d2 was dissolved in PBS containing 5% DMSO and 5% ethanol at final concentration 40 μCi/mL. Then 0.5 ml of stock solution was transferred to a microscope slide with 5 μm thick freshly dried section of a tissue and incubated for 90 min at room temperature. The slides were washed by dipping into following solutions: PBS for 1 min, 70% ethanol 2 min, 30% ethanol 2 min and PBS 1 min. The samples were dried at room temperature for 30 min and exposed to phosphorimager plate for 20 h. The exposed plates were scanned at 25 μm resolution.
Autoradiographic evaluation of [^18F][A] and [^18F][A]-d2 was performed using brain tissues collected postmortem from human donors. […] The positive staining was found in grey matter of tissues containing high level of NFTs and high AD-amyloid characterized as Braak score 5. […] The NFT and Aβ-amyloid burden was measured by standard immunohistochemical methods.

tau = test: Human PET imaging with [18F][A]-d2 (SUVR); format: in vivo; details: for SUVR Frontal lobe / SUVR Occipital lobe / SUVR Parietal lobe / SUVR Temporal lobe / SUVR White matter: cerebellum gray as reference
Excerpt: A total of 5 subjects, 3 Alzheimer's disease (AD) patients and 2 healthy volunteers (HV) was used in this study. This study protocol required each subject to complete the following components: screening evaluation, MRI, [^18F]florbetapir (AD subjects only) and [^18F][A]-d2. The screening procedures included neuropsychological assessment, vital signs, ECG, physical exam, MRI, and [^18F]florbetapir PET imaging to confirm presence of amyloid deposition in patients clinically diagnosed with probable AD. In addition, each subject completed clinical assessments and clinical safety labs to ensure the subject was medically stable to complete the study protocol. The screening procedures occurred within 30 days prior to [^18F][A]-d2 imaging. Eligible subjects participated in a single [^18F][A]-d2 imaging session. The distribution of tau binding was assessed in each of the subject groups (AD and HV) to evaluate for binding to tau. For each AD subject, the distribution of Aβ and tau was compared. Tau binding in brain was assessed with PET using [^18F][A]-d2. Radioligand binding was compared in brains of HV subjects who should have minimal to negligible concentrations of tau compared to patients with AD, who are expected to have moderate to high densities of tau.
All subjects received a single injection of [^18F][A]-d2. Subjects received a bolus intravenous injection of no more than 370 MBq (˜10 mCi).
Images were acquired using a HR+ PET camera in three-dimensional mode and were reconstructed using an iterative algorithm including scatter and measured attenuation correction (^68Ge source). Dynamic images were acquired upon injection (˜370 MBq). The scanning protocol consisted of 2 scanning segments in the two healthy control (HC) subjects, Subjects 1 & 2 (0-120 min and ˜150-180 min) and of 3 segments in the suspected AD patient, Subject 3 (0-60 min, 93-123 min and 147-177 min).
The MR volumetric image, a summed image of the first 15 min after tracer administration of [^18F][A]-d2 were coregistered using Statistical Parametic Mapping SPM8 (software provided by members and collaborators of the Wellcome Trust Centre for Neuroimaging). Alignment of the additional PET segments to the first PET segment was performed using in-house developed analysis software written in Matlab® (version 8 Release 2014a). Then, using the MRI scan for anatomical delineation, irregular regions of interest (ROI) were drawn for each subject in the frontal, parietal, occipital, and temporal lobes, cerebellum gray, and white-matter (centrum semi-ovale) using MIM® software.
[^18F][A]-d2 tissue time activity curves (TAC) were expressed in SUV (Standardized Uptake Value) using each subject's weight and the corresponding tracer injected dose: TAC(SUV)=TAC(Bq/cm^3)×1000 cm^3/kg×Subject's weight(kg)/Injected dose(Bq). TAC creation and all subsequent analyses were performed using in-house developed analysis software written in Matlab®.
The ratio to cerebellum gray or standardized uptake value ratio (SUVR) was calculated. […] A clear separation of the curves is observed as early as 30 min post injection. The SUVR curves in the two healthy controls remained relatively constant soon after injection. The SUVR in the AD subject reached a plateau in the 90-120 min interval.

[4] = 40-60 min interval, Subject 1 (HC)
[5] = 40-60 min interval, Subject 2 (HC)
[6] = 40-60 min interval, Subject 3 (AD)
[7] = 90-120 min interval, Subject 1 (HC)
[8] = 90-120 min interval, Subject 2 (HC)
[9] = 90-120 min interval, Subject 3 (AD)

Question: With `[2H]C([2H])([18F])CC1CCN(c2ccn3c(n2)nc2ccccc23)CC1` [[^18F][A]-d2, 1,1-dideutero-2-(1-(benzo[4,5]imidazo[1,2-a]pyrimidine-2-yl)piperidin-4-yl)-1-[^18F]fluoroethane] as the molecule, how does the “amount of parent compound” value [1] read?
Answer: 2.0±0.3%

Question: And the “stability / skull uptake of free fluoride” value [2]?
Answer: increased stability reflected by a reduction of skull uptake of free fluoride

Question: And the “staining of negative control tissues” value ([3]; high or moderate amyloid burden but no NFTs, Braak score 3 or 2)?
Answer: not positively stained

Question: And the autoradiographic binding pattern ([3]; human brain tissues, positive staining in grey matter with high NFTs, Braak score 5)?
Answer: tau specific binding patterns

Question: And the “SUVR Frontal lobe” value (tau; [4])?
Answer: 1.08

Question: What about the “SUVR Occipital lobe” value (tau; [4]) of the same molecule?
Answer: 1.15

Question: And the “SUVR Parietal lobe” value (tau; [4])?
Answer: 1.09

Question: What about the “SUVR Temporal lobe” value (tau; [4]) of the same molecule?
Answer: 1.14

Question: And the “SUVR White matter” value (tau; [4])?
Answer: 0.85

Question: And the “SUVR Frontal lobe” value (tau; [5])?
Answer: 1.12

Question: And the “SUVR Occipital lobe” value (tau; [5])?
Answer: 1.19

Question: What about the “SUVR Parietal lobe” value (tau; [5]) of the same molecule?
Answer: 1.13

Question: And the “SUVR Temporal lobe” value (tau; [5])?
Answer: 1.18

Question: And the “SUVR White matter” value (tau; [5])?
Answer: 0.80

Question: And the “SUVR Frontal lobe” value (tau; [6])?
Answer: 1.16

Question: And the “SUVR Occipital lobe” value (tau; [6])?
Answer: 1.60

Question: And the “SUVR Parietal lobe” value (tau; [6])?
Answer: 1.35

Question: And the “SUVR Temporal lobe” value (tau; [6])?
Answer: 1.82

Question: What about the “SUVR White matter” value (tau; [6]) of the same molecule?
Answer: 0.88

Question: What about the “SUVR Frontal lobe” value (tau; [7]) of the same molecule?
Answer: 1.07

Question: And the “SUVR Occipital lobe” value (tau; [7])?
Answer: 1.19

Question: What about the “SUVR Parietal lobe” value (tau; [7]) of the same molecule?
Answer: 1.07

Question: What about the “SUVR Temporal lobe” value (tau; [7]) of the same molecule?
Answer: 1.13

Question: And the “SUVR White matter” value (tau; [7])?
Answer: 0.76

Question: And the “SUVR Frontal lobe” value (tau; [8])?
Answer: 1.17

Question: What about the “SUVR Occipital lobe” value (tau; [8]) of the same molecule?
Answer: 1.21

Question: And the “SUVR Parietal lobe” value (tau; [8])?
Answer: 1.07

Question: And the “SUVR Temporal lobe” value (tau; [8])?
Answer: 1.18

Question: What about the “SUVR White matter” value (tau; [8]) of the same molecule?
Answer: 0.66

Question: And the “SUVR Frontal lobe” value (tau; [9])?
Answer: 1.25

Question: What about the “SUVR Occipital lobe” value (tau; [9]) of the same molecule?
Answer: 1.87

Question: And the “SUVR Parietal lobe” value (tau; [9])?
Answer: 1.52

Question: What about the “SUVR Temporal lobe” value (tau; [9]) of the same molecule?
Answer: 2.25

Question: What about the “SUVR White matter” value (tau; [9]) of the same molecule?
Answer: 0.81

Question: What about the “radioactivity uptake in bone tissue” value (tau; Subjects 1-3, human PET images) of the same molecule?
Answer: no radioactivity uptake in bone tissue
